Test results from patent US6737383B1, “Herbicidal oxadiazolidines” (priority 1999, dated 2004).

Columns and labels:
[1] = system: soybean; experiment: Test B pre/postemergence soybean; format: in vivo, Glycine max
How it was run: (§1)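 Herbicidal effect was estimated by eye on a ten-point control scale after plants spent twelve to sixteen days in a greenhouse following soil or foliar treatment. Foliar sprays targeted plants at one to four leaves; all doses were formulated in a non-phytotoxic solvent with surfactant.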

[2] = system: rape; experiment: Test B pre/postemergence rape; format: in vivo, Brassica napus
How it was run: as §1

[3] = system: rice; experiment: Test B flood test rice; format: in vivo, Oryza sativa
Method: At the same time, these crop and weed species were also treated with postemergence applications of test chemicals formulated in the same manner. Plants ranged in height from 2 to 18 cm (1- to 4-leaf stage) for postemergence treatments. Plant species in the flood test consisted of rice (Oryza sativa), smallflower flatsedge (Cyperus difformis), duck salad (Heteranthera limosa) and bamyardgrass (Echinochloa crus-galli) grown to the 2-leaf stage for testing. Treated plants and controls were maintained in a greenhouse for twelve to sixteen days, after which all species were compared to controls and visually evaluated. Plant response ratings, summarized in Table B, are based on a scale of 0 to 10 where 0 is no effect and 10 is complete control. A dash (−) response means no test result.

[4] = system: blackgrass; experiment: Test B pre/postemergence blackgrass; format: in vivo, Alopecurus myosuroides
How it was run: as §1

[5] = system: cocklebur; experiment: Test B pre/postemergence cocklebur; format: in vivo, Xanthium strumarium
How it was run: as §1

[6] = system: wheat; experiment: Test B pre/postemergence wheat; format: in vivo, Triticum aestivum
How it was run: as §1

[7] = system: smallflower flatsedge; experiment: Test B flood test smallflower flatsedge; format: in vivo, Cyperus difformis
How it was run: (§2)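 Each value is a visual injury score relative to controls, with 10 meaning complete control and 0 no effect. Evaluation took place twelve to sixteen days after the 2-leaf-stage plants were treated and kept in the greenhouse.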

[8] = system: pigweed; experiment: Test B pre/postemergence pigweed; format: in vivo, Amaranthus retroflexus
How it was run: as §1

[9] = system: purple nutsedge; experiment: Test B pre/postemergence purple nutsedge; format: in vivo, Cyperus rotundus
How it was run: as §1

[10] = system: crabgrass; experiment: Test B pre/postemergence crabgrass; format: in vivo, Digitaria sanguinalis
How it was run: as §1

[11] = system: giant foxtail; experiment: Test B pre/postemergence giant foxtail; format: in vivo, Setaria faberii
How it was run: as §1

[12] = system: duck salad; experiment: Test B flood test duck salad; format: in vivo, Heteranthera limosa
How it was run: as §2

[13] = system: velvetleaf; experiment: Test B pre/postemergence velvetleaf; format: in vivo, Abutilon theophrasti
How it was run: as §1

[14] = system: corn; experiment: Test B pre/postemergence corn; format: in vivo, Zea mays
How it was run: as §1

[15] = system: sugar beet; experiment: Test B pre/postemergence sugar beet; format: in vivo, Beta vulgaris
How it was run: as §1

[16] = system: wild oat; experiment: Test B pre/postemergence wild oat; format: in vivo, Avena fatua
How it was run: as §1

[17] = system: morningglory; experiment: Test B pre/postemergence morningglory; format: in vivo, Ipomoea hederacea
How it was run: as §1

[18] = system: bamyardgrass; experiment: Test B flood test barnyardgrass; format: in vivo, Echinochloa crus-galli
How it was run: as §2

[19] = system: surinam grass; experiment: Test B pre/postemergence surinam grass; format: in vivo, Brachiaria decumbens
How it was run: as §1

[20] = Postemergence, Rate 62 g/ha, scale 0 to 10, 0 is no effect, 10 is complete control
[21] = Postemergence, Rate 125 g/ha, scale of 0 to 10 where 0 is no effect and 10 is complete control
[22] = Preemergence, Rate 62 g/ha, scale of 0 to 10 where 0 is no effect and 10 is complete control
[23] = Preemergence, Rate 125 g/ha, scale of 0 to 10 where 0 is no effect and 10 is complete control
[24] = Preemergence, Rate 500 g/ha, scale of 0 to 10 where 0 is no effect and 10 is complete control
[25] = Preemergence, Rate 250 g/ha, scale 0 to 10 (0 no effect, 10 complete control)
[26] = Rate 500 g/ha, Postemergence, scale 0 to 10, 0 is no effect, 10 is complete control
[27] = Rate 62 g/ha, flood test species, Pre-emergence, visual evaluation after twelve to sixteen days
[28] = Rate 125 g/ha, under heading Pre-emergence, flood test species, visual evaluation after twelve to sixteen days
[29] = Rate 250 g/ha, Pre-emergence (flood test species), scale 0 to 10, 0 is no effect, 10 is complete control
[30] = Rate 500 g/ha, Pre-emergence section of Table B, 0 to 10 scale (0 no effect, 10 complete control)
[31] = Postemergence, Rate 250 g/ha, scale of 0 to 10, 0 is no effect, 10 is complete control
[32] = Pre-emergence, Rate 62 g/ha, scale 0 to 10, 0 is no effect, 10 is complete control
[33] = Rate 125 g/ha, Pre-emergence section (flood test species), scale 0 to 10, 0 no effect, 10 complete control

C#CC(C)n1c(=O)on(C(=O)N(c2ccc(F)cc2F)C(C)C)c1=O (racemic) [Compound 657]
Plant response rating, Soybean [1, 20]: 1 | Soybean plant response rating [1, 21]: 1 | Soybean plant response rating [1, 22]: 0 | Soybean plant response rating [1, 23]: 0 | Plant response rating, Soybean [1, 24]: 3 | Plant response rating, Rape [2, 20]: 0 | Rape plant response rating [2, 21]: 2 | Rape plant response rating [2, 22]: 3 | Rape plant response rating [2, 23]: 3 | Plant response rating, Rape [2, 25]: 10 | Plant response rating, Rape [2, 24]: 10 | Rape plant response rating [2, 26]: 3 | Plant response rating, Rice (0 to 10 scale, 0 is no effect, 10 is complete control) [3, 27]: 0 | Rice plant response rating (0 to 10 scale, 0 is no effect, 10 is complete control) [3, 28]: 0 | Rice plant response rating [3, 29]: 0 | Rice plant response rating [3, 30]: 0 | Plant response rating, Blackgrass [4, 20]: 6 | Blackgrass plant response rating [4, 21]: 8 | Blackgrass plant response rating [4, 31]: 8 | Blackgrass plant response rating [4, 22]: 5 | Blackgrass plant response rating [4, 23]: 9 | Plant response rating, Blackgrass [4, 25]: 7 | Plant response rating, Blackgrass [4, 24]: 9 | Blackgrass plant response rating [4, 26]: 8 | Plant response rating, Cocklebur [5, 20]: 0 | Cocklebur plant response rating [5, 21]: 2 | Cocklebur plant response rating [5, 31]: 4 | Cocklebur plant response rating [5, 22]: 0 | Cocklebur plant response rating [5, 23]: 0 | Plant response rating, Cocklebur [5, 25]: 2 | Plant response rating, Cocklebur [5, 24]: 2 | Cocklebur plant response rating [5, 26]: 5 | Plant response rating, Wheat [6, 20]: 0 | Wheat plant response rating [6, 21]: 0 | Wheat plant response rating [6, 22]: 0 | Wheat plant response rating [6, 23]: 0 | Plant response rating, Wheat [6, 25]: 0 | Plant response rating, Wheat [6, 24]: 7 | Wheat plant response rating [6, 26]: 5 | Plant response rating, S. Flatsedge (0 to 10 scale, 0 is no effect, 10 is complete control) [7, 27]: 0 | S. Flatsedge plant response rating (0 to 10 scale, 0 is no effect, 10 is complete control) [7, 28]: 0 | S. Flatsedge plant response rating [7, 29]: 0 | S. Flatsedge plant response rating [7, 30]: 0 | Plant response rating, Redroot pigweed [8, 20]: 0 | Redroot pigweed plant response rating [8, 21]: 2 | Redroot pigweed plant response rating [8, 22]: 7 | Redroot pigweed plant response rating [8, 23]: 10 | Plant response rating, Redroot pigweed [8, 25]: 10 | Plant response rating, Redroot pigweed [8, 24]: 10 | Redroot pigweed plant response rating [8, 26]: 7 | Nutsedge plant response rating [9, 21]: 3 | Nutsedge plant response rating [9, 22]: 0 | Nutsedge plant response rating [9, 23]: 0 | Plant response rating, Nutsedge [9, 25]: 5 | Plant response rating, Nutsedge [9, 24]: 6 | Plant response rating, Crabgrass [10, 20]: 3 | Crabgrass plant response rating [10, 21]: 8 | Crabgrass plant response rating [10, 31]: 9 | Crabgrass plant response rating [10, 22]: 3 | Crabgrass plant response rating [10, 23]: 10 | Plant response rating, Crabgrass [10, 25]: 9 | Plant response rating, Crabgrass [10, 24]: 9 | Crabgrass plant response rating [10, 26]: 9 | Plant response rating, Giant foxtail [11, 20]: 5 | Giant foxtail plant response rating [11, 21]: 8 | Giant foxtail plant response rating [11, 31]: 7 | Giant foxtail plant response rating [11, 22]: 10 | Giant foxtail plant response rating [11, 23]: 10 | Plant response rating, Giant foxtail [11, 25]: 9 | Plant response rating, Giant foxtail [11, 24]: 9 | Giant foxtail plant response rating [11, 26]: 8 | Plant response rating, Ducksalad (0 to 10 scale, 0 is no effect, 10 is complete control) [12, 27]: 0 | Ducksalad plant response rating (0 to 10 scale, 0 is no effect, 10 is complete control) [12, 28]: 0 | Ducksalad plant response rating [12, 29]: 0 | Ducksalad plant response rating [12, 30]: 0 | Plant response rating, Velvetleaf [13, 20]: 2 | Velvetleaf plant response rating [13, 21]: 3 | Velvetleaf plant response rating [13, 22]: 3 | Velvetleaf plant response rating [13, 23]: 4 | Plant response rating, Velvetleaf [13, 25]: 8 | Plant response rating, Velvetleaf [13, 24]: 10 | Velvetleaf plant response rating [13, 26]: 4 | Plant response rating, Corn [14, 20]: 1 | Corn plant response rating [14, 21]: 1 | Corn plant response rating [14, 31]: 1 | Corn plant response rating [14, 22]: 0 | Corn plant response rating [14, 23]: 1 | Plant response rating, Corn [14, 24]: 8 | Corn plant response rating [14, 26]: 1 | Plant response rating, Sugarbeets [15, 20]: 0 | Sugarbeets plant response rating [15, 21]: 0 | Sugarbeets plant response rating [15, 22]: 7 | Sugarbeets plant response rating [15, 23]: 7 | Plant response rating, Sugarbeets [15, 25]: 10 | Plant response rating, Sugarbeets [15, 24]: 9 | Sugarbeets plant response rating [15, 26]: 3 | Plant response rating, Wild oats [16, 20]: 1 | Wild oats plant response rating [16, 21]: 2 | Wild oats plant response rating [16, 22]: 3 | Wild oats plant response rating [16, 23]: 6 | Plant response rating, Wild oats [16, 25]: 8 | Plant response rating, Wild oats [16, 24]: 8 | Wild oats plant response rating [16, 26]: 2 | Plant response rating, Morningglory [17, 20]: 2 | Morningglory plant response rating [17, 21]: 5 | Morningglory plant response rating [17, 31]: 5 | Morningglory plant response rating [17, 22]: 1 | Morningglory plant response rating [17, 23]: 1 | Plant response rating, Morningglory [17, 25]: 4 | Plant response rating, Morningglory [17, 24]: 6 | Morningglory plant response rating [17, 26]: 9 | Plant response rating, Barnyardgrass (0 to 10 scale, 0 is no effect, 10 is complete control) [18, 27]: 0 | Barnyardgrass plant response rating (0 to 10 scale, 0 is no effect, 10 is complete control) [18, 28]: 0 | Barnyardgrass plant response rating [18, 29]: 0 | Barnyardgrass plant response rating [18, 30]: 0 | Plant response rating, B. signalgrass [19, 20]: 0 | Plant response rating, B. signalgrass [19, 21]: 2 | B. signalgrass plant response rating [19, 31]: 4 | B. signalgrass plant response rating [19, 22]: 2 | B. signalgrass plant response rating [19, 23]: 8 | Plant response rating, B. signalgrass [19, 25]: 9 | Plant response rating, B. signalgrass [19, 24]: 10 | B. signalgrass plant response rating [19, 26]: 6

CC(C)N(C(=O)n1oc(=O)n(C2CC=CCC2)c1=O)c1ccc(F)cc1 (stereo not drawn) [Compound 793]
Rice plant response rating [3, 32]: 0 | Rice plant response rating [3, 33]: 0 | Rice plant response rating [3, 30]: 0 | S. Flatsedge plant response rating [7, 32]: 6 | S. Flatsedge plant response rating [7, 33]: 7 | S. Flatsedge plant response rating [7, 30]: 8 | Ducksalad plant response rating [12, 32]: 6 | Ducksalad plant response rating [12, 33]: 7 | Ducksalad plant response rating [12, 30]: 8 | Barnyardgrass plant response rating [18, 32]: 0 | Barnyardgrass plant response rating [18, 33]: 0 | Barnyardgrass plant response rating [18, 30]: 0
